# According to US20040171086A1, “Selective modulation of TLR-mediated biological activity” (3M Innovative Properties Company, priority 2003, published 2004):
# Biological target: T1, TLR7 (Homo sapiens, UniProt Q9NYK1)
# T1 sequence (Q9NYK1 27-1049): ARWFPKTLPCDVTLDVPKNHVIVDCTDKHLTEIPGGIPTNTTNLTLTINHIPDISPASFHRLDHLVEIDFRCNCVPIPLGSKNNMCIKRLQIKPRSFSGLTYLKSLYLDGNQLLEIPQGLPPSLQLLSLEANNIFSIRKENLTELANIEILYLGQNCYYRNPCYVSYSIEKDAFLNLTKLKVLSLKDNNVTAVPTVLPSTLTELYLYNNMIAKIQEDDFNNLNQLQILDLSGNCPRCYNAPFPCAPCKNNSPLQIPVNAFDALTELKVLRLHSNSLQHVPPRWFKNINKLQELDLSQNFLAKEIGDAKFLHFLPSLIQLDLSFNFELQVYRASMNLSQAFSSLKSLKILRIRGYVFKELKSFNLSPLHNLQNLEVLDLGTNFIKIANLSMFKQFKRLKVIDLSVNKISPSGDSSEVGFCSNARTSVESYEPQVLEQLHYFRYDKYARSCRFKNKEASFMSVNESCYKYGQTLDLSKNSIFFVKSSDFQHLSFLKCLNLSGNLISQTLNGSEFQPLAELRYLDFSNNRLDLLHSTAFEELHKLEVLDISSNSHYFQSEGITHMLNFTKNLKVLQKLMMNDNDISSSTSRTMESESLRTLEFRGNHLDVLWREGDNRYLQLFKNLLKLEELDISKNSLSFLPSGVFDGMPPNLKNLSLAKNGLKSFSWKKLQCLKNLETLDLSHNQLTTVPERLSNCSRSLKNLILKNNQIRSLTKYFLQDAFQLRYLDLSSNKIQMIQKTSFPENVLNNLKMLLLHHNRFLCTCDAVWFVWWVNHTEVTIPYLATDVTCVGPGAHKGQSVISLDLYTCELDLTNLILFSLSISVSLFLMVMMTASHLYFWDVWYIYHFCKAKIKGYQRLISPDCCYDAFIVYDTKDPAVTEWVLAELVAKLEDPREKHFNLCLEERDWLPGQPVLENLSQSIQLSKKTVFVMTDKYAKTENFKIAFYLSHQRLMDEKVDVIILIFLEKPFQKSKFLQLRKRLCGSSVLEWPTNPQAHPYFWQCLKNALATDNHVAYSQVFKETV
# Experiment: IFN-α1-luciferase reporter assay in genetically modified Namalwa cells, TLR7
# Assay type: cell-based
# Design: expressed in transfected cells; host or cells: Namalwa (ATCC CRL-1432)
# Details: 10 μM IRM, 18 hours
# Protocol: Results are shown in Table 6 and are expressed as fold induction of IFN-α1 —induced luciferase signal, again with respect to a vehicle control.
# The assay identified TLR6-selective compounds (i.e., compounds that modulate TLR6-mediated activity, but not TLR7-mediated activity), TLR7-selective compounds (compounds that modulate TLR7-mediated activity, but not TLR6-mediated activity), and compounds that modulate cellular activity through both TLR6 and TLR7.
# Unless otherwise indicated, all incubations were performed at 37° C. with 5% CO2 at 98% humidity.
# Culture medium was prepared from complete RPMI 1640 medium (BioSource International, Inc., Camarillo, Calif.). Fetal bovine serum (Atlas Biologicals, Inc., Ft. Collins, Colo.) was added to a final concentration of 7.5% (vol/vol); L-glutamine (BioSource International, Inc.) was added to 5 mM; and sodium pyruvate (BioSource International, Inc.) was added to 1 mM.
# Namalwa cells were grown by incubation in culture medium overnight. Cells were harvested by centrifugation in a tabletop centrifuge (1200 RPM for 5 minutes), and then resuspended in phosphate buffered sucrose to a concentration of 1.3×10^7 cells/mL. […]
# The electroporated cells were suspended in 10 mLs of culture medium and incubated overnight. Dead cells and debris were removed after 24 hours using a MACS Dead Cell Removal kit (Miltenyi Biotec, Auburn, Calif.). Cells were resuspended in 10 mL of culture medium and incubated for an additional 24 hours.
# Transfected cells were selected by adding G418 (Promega Corp., Madison, Wis.) to a final concentration of 1 mg/mL and incubating the cells for seven days.
# The selected transfected cells were counted and resuspended to a concentration of 1×10^6 cell per mL in culture medium. 100 μl aliquots of cells were placed in the wells of a white-walled, white-bottomed 96-well plate (Corning, Inc., Corning, N.Y.). 1.0 μL of an IRM compound from Table 1 (prepared at 1 mM in 100% DMSO) was added to some cell aliquots so that the final concentration of IRM compound was 10 μM. As a positive control, some cell aliquots were incubated with Sendai virus instead of IRM compound. As a negative control, some cell aliquots were incubated with DMSO without IRM compound. In all cases, the cells were incubated for 18 hours.
# The plates were equilibrated to room temperature before one volume of reconstituted LucLight Plus (Packard Instruments, Meriden, Conn.) was added to each aliquot of cells. Each well of the plate was read on an LJL Analyst (LJL Biosystems, Inc., Sunnyvale, Calif.) set with a 5 minute dark adapt. Results are shown in Table 6 and are expressed as fold increase of the IFN-αl—induced luciferase signal compared to a DMSO control.
row,TLR7: fold increase of the IFN-α1-induced luciferase signal compared to a DMSO control [fold increase],Compound
1,3.48,"CCC(C)NC(=S)NCCn1c(CCOC)nc2c(N)nc3ccccc3c21 (stereo not drawn) [IRM21, N-{2-[4-amino-2-(2-methoxyethyl)-1H-imidazo[4,5-c]quinolin-1-yl]ethyl}-N′-sec-butylthiourea]"
2,1.40,"CCc1nc2c(N)nc3ccccc3c2n1CCCCSc1cc(Cl)cc(Cl)c1 [IRM14, 1-{4-[(3,5-dichlorophenyl)thio]butyl}-2-ethyl-1H-imidazo[4,5-c]quinolin-4-amine]"
3,3.59,"COCCc1nc2c(N)nc3c(c2n1CC(C)(C)NS(C)(=O)=O)CCCC3 [IRM22, N-{2-[4-amino-2-(2-methoxyethyl)-6,7,8,9-tetrahydro-1H-imidazo[4,5-c]quinolin-1-yl]-1,1-dimethylethyl}methanesulfonamide]"
4,2.43,"CCOCc1nc2c(N)nc3ccccc3c2n1CC(C)C [IRM1, 2-(ethoxymethyl)-1-(2-methylpropyl)-1H-imidazo[4,5-c]quinolin-4-amine]"
5,2.89,"CCc1nc2c(N)nc3ccccc3c2n1CCCCNC(=O)C1CCCCC1 [IRM8, N-[4-(4-amino-2-ethyl-1H-imidazo[4,5-c]quinolin-1-yl)butyl]cyclohexanecarboxamide]"
6,2.86,"COCCc1nc2c(N)nc3ccccc3c2n1CCOCCN(C)C(=O)C1CCCCC1 [IRM3, N-(2-{2-[4-amino-2-(2-methoxyethyl)-1H-imidazo[4,5-c]quinolin-1-yl]ethoxy}ethyl)-N-methylcyclohexanecarboxamide]"
7,3.09,"CCCCc1nc2c(N)nc3ccccc3c2n1CCCCCS(C)(=O)=O [IRM6, 2-butyl-1-[5-(methylsulfonyl)pentyl]-1H-imidazo[4,5-c]quinolin-4-amine]"
8,2.96,"CCOCc1nc2c(N)nc3c(c2n1CC(C)(C)O)CCCC3 [IRM16, 4-amino-2-ethoxymethyl-α,α-dimethyl-6,7,8,9-tetrahydro-1H-imidazo[4,5-c]quinoline-1-ethanol]"
9,2.63,"COCCc1nc2c(N)nc3ccccc3c2n1CCOCCNC(=O)Nc1ccccc1 [IRM19, N-(2-{2-[4-amino-2-(2-methoxyethyl)-1H-imidazo[4,5-c]quinolin-1-yl)ethoxy}ethyl)-N′-phenylurea]"
